Fold induction and EC50 data for 30 compounds are collected here from patent publication US20060276464A1, “Diarylsulfone sulfonamides and use thereof” (Wyeth, priority 2005, published 2006).

In this assay the target is T1, SFRP-1 (Homo sapiens, UniProt Q8N474).
T1 sequence (Q8N474 32-314): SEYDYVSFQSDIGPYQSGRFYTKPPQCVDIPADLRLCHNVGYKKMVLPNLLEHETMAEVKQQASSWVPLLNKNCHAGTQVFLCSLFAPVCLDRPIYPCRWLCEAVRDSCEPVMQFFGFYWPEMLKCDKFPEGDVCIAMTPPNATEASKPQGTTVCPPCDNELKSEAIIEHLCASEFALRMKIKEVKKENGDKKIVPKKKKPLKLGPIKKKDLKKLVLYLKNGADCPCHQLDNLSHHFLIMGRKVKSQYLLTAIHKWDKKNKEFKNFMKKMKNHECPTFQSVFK
Put plainly: Cell-based assay for in vitro measurement of SFRP-1/SARP2 antagonist activity (U2OS cells co-transfected with 16x TCF-tk-Luciferase reporter, Wnt and hSFRP-1).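 On all read-outs here: U2OS cells co-transfected with a TCF-tk luciferase reporter, a Wnt vector, hSFRP-1 or empty vector and CMV-βgal, luciferase luminescence read in cell lysates alongside βgal activity.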 The settings on record: for fold induction at 15 µM / fold induction at 10 µM: U2OS; for fold induction at 15 µM: single dose, luciferase reporter; for fold induction at 10 µM: read-out: Fold Induction with SFRP-1, U2OS cells, single dose 10 μM, luciferase reporter, fold induction over SFRP-1 control.

Where [1] appears, read: read-out: Fold Induction with SFRP-1, Conc 15 μM, fold induction over SFRP-1 control, cells with SFRP-1.
[2] abbreviates: read-out: Fold Induction without SFRP-1, Conc 15 μM, cells without SFRP-1 (specificity control).

Each structure is given as a SMILES string. Read-outs that look alike come from different tables or passages of the source.

On to `CN(C)c1ccc(S(=O)(=O)c2ccccc2)cc1S(=O)(=O)NCCc1ccccn1` [Example 601, 2-(dimethylamino)-5-(phenylsulfonyl)-N-(2-pyridin-2-ylethyl)benzenesulfonamide], for which the fold induction at 15 µM turned out to be 2 under setting [1] and 0.9 under setting [2].

`Cc1ccc(S(=O)(=O)c2ccc(F)cc2)cc1S(=O)(=O)N(C(=O)C1CC1)C1CCN(C(=O)C2CC2)CC1` [Example 602, N-[1-(cyclopropylcarbonyl)piperidin-4-yl]-N-({5-[(4-fluorophenyl)sulfonyl]-2-methylphenyl}sulfonyl)cyclopropanecarboxamide]: the fold induction at 15 µM under setting [1] was determined as 1.3 and the fold induction at 15 µM under setting [2] was 1.1.

For the compound `O=S(=O)(NC1CCOCC1)c1cc(S(=O)(=O)c2ccc(F)cc2)ccc1Cl` [Example 622, 2-chloro-5-[(4-fluorophenyl)sulfonyl]-N-(tetrahydro-2H-pyran-4-yl)benzenesulfonamide], the fold induction at 15 µM was found to be 2.7 under setting [1] and 1.1 under setting [2].

`CC(C)(C)OC(=O)N1CCC(NS(=O)(=O)c2cc(S(=O)(=O)c3ccccc3)ccc2Cl)CC1` [Example 623, tert-butyl 4-({[2-chloro-5-(phenylsulfonyl)phenyl]sulfonyl}amino)piperidine-1-carboxylate]: the fold induction at 15 µM by setting is: under setting [1], 2.2; under setting [2], 1.1.

Take `O=S(=O)(NC1CCNCC1)c1cc(S(=O)(=O)c2ccccc2)ccc1Cl` [Example 624, 2-chloro-5-(phenylsulfonyl)-N-piperidin-4-ylbenzenesulfonamide]: the fold induction at 15 µM by setting is: under setting [1], 2.7; under setting [2], 1.2.

Regarding `O=S(=O)(c1ccccc1)c1ccc(Cl)c(S(=O)(=O)N2CCC(N3CCCC3)CC2)c1` [Example 635, 1-{[2-chloro-5-(phenylsulfonyl)phenyl]sulfonyl}-4-pyrrolidin-1-ylpiperidine], the fold induction at 15 µM by setting is: under setting [1], 2; under setting [2], 1.7.

In the case of `O=S(=O)(c1ccccc1)c1ccc(Cl)c(S(=O)(=O)N2CCN(CCN3CCOCC3)CC2)c1` [Example 636, 4-[2-(4-{[2-chloro-5-(phenylsulfonyl)phenyl]sulfonyl}piperazin-1-yl)ethyl]morpholine], the fold induction at 15 µM runs as follows: under setting [1], 1.7; under setting [2], 1.1.

`O=S(=O)(c1ccccc1)c1ccc(Cl)c(S(=O)(=O)N2CCN(Cc3ccc4c(c3)OCO4)CC2)c1` [Example 637, 1-(1,3-benzodioxol-5-ylmethyl)-4-{[2-chloro-5-(phenylsulfonyl)phenyl]sulfonyl}piperazine]: the fold induction at 15 µM turned out to be 0.9 under setting [1] and 1 under setting [2].

In the case of `CC(C)(C)OC(=O)NC1CCN(S(=O)(=O)c2cc(S(=O)(=O)c3ccccc3)ccc2Cl)C1` (centres unmarked) [Example 638, tert-butyl(1-{[2-chloro-5-(phenylsulfonyl)phenyl]sulfonyl}pyrrolidin-3-yl)carbamate], the fold induction at 15 µM was determined as 1.2 under setting [1] and 1.1 under setting [2].

For the compound `CC(C)(C)OC(=O)NC1CCN(S(=O)(=O)c2cc(S(=O)(=O)c3ccccc3)ccc2Cl)CC1` [Example 639, tert-butyl(1-{[2-chloro-5-(phenylsulfonyl)phenyl]sulfonyl}piperidin-4-yl)carbamate], the fold induction at 15 µM by setting is: under setting [1], 0.9; under setting [2], 1.

Regarding `CN1CCN(CCCNS(=O)(=O)c2cc(S(=O)(=O)c3ccccc3)ccc2Cl)CC1` [Example 642, 2-chloro-N-[3-(4-methylpiperazin-1-yl)propyl]-5-(phenylsulfonyl)benzenesulfonamide], the fold induction at 15 µM under setting [1] worked out at 2.2 and the fold induction at 15 µM under setting [2] turned out to be 1.1.

Turning to `CCN(CC)C1CCN(S(=O)(=O)c2cc(S(=O)(=O)c3ccccc3)ccc2Cl)C1` (centres unmarked) [Example 644, 1-{[2-chloro-5-(phenylsulfonyl)phenyl]sulfonyl}-N,N-diethylpyrrolidin-3-amine], the fold induction at 15 µM is 1.3 under setting [1] and 1.1 under setting [2].

`CCOC(=O)C1CCCN(S(=O)(=O)c2cc(S(=O)(=O)c3ccccc3)ccc2Cl)C1` (centres unmarked) [Example 645, ethyl 1-{[2-chloro-5-(phenylsulfonyl)phenyl]sulfonyl}piperidine-3-carboxylate]: the fold induction at 15 µM came out at 1 under setting [1] and 1.1 under setting [2].

In the case of `CN(CCc1ccccn1)S(=O)(=O)c1cc(S(=O)(=O)c2ccccc2)ccc1Cl` [Example 646, 2-chloro-N-methyl-5-(phenylsulfonyl)-N-(2-pyridin-2-ylethyl)benzenesulfonamide], the fold induction at 15 µM reads like this: under setting [1], 1; under setting [2], 1.1.

`Cc1ccc(C)n1CC1CCN(S(=O)(=O)c2cc(S(=O)(=O)c3ccccc3)ccc2Cl)CC1` [Example 653, 1-{[2-chloro-5-(phenylsulfonyl)phenyl]sulfonyl}-4-[(2,5-dimethyl-1H-pyrrol-1-yl)methyl]piperidine]: the fold induction at 15 µM is 1 under setting [1] and 1 under setting [2].

For `COC(=O)C(C)(C)NS(=O)(=O)c1cc(S(=O)(=O)c2ccccc2)ccc1Cl` [Example 654, methyl N-{[2-chloro-5-(phenylsulfonyl)phenyl]sulfonyl}-2-methylalaninate], the fold induction at 15 µM worked out at 1 under setting [1] and 1 under setting [2].

Take `CC(C)(CO)NS(=O)(=O)c1cc(S(=O)(=O)c2ccccc2)ccc1Cl` [Example 655, 2-chloro-N-(2-hydroxy-1,1-dimethylethyl)-5-(phenylsulfonyl)benzenesulfonamide]: the fold induction at 10 µM is 1.1.

Turning to `N#CCNS(=O)(=O)c1cc(S(=O)(=O)c2ccccc2)ccc1Cl` [Example 663, 2-chloro-N-(cyanomethyl)-5-(phenylsulfonyl)benzenesulfonamide], the fold induction at 10 µM was determined as 1.

On to `Cc1ccc(S(=O)(=O)c2ccccc2)cc1S(=O)(=O)NCCC(=O)N1CCCC1` [Example 665, 2-methyl-N-(3-oxo-3-pyrrolidin-1-ylpropyl)-5-(phenylsulfonyl)benzenesulfonamide], for which the fold induction at 10 µM was 1.3.

On to `Cc1ccc(S(=O)(=O)c2ccccc2)cc1S(=O)(=O)NCCC(=O)NC(C)(C)C` [Example 666, N-(tert-butyl)-N^3-{[2-methyl-5-(phenylsulfonyl)phenyl]sulfonyl}-β-alaninamide], for which the EC50 was 27.2 µM and the fold induction at 10 µM turned out to be 1.5.

For the compound `Cc1ccc(S(=O)(=O)c2ccccc2)cc1S(=O)(=O)NCCC(=O)NC1CCCc2ccccc21` (stereo not drawn) [Example 667, N^3-{[2-methyl-5-(phenylsulfonyl)phenyl]sulfonyl}-N-(1,2,3,4-tetrahydronaphthalen-1-yl)-β-alaninamide], the fold induction at 10 µM was determined as 0.9.

In the case of `Cc1ccc(S(=O)(=O)c2ccccc2)cc1S(=O)(=O)NCCC(=O)N(C)c1ccccc1` [Example 668, N-methyl-N^3-{[2-methyl-5-(phenylsulfonyl)phenyl]sulfonyl}-N-phenyl-β-alaninamide], the fold induction at 10 µM amounted to 1.4.

As to `Cc1ccc2c(c1)CCCN2C(=O)CCNS(=O)(=O)c1cc(S(=O)(=O)c2ccccc2)ccc1C` [Example 669, 2-methyl-N-[3-(6-methyl-3,4-dihydroquinolin-1(2H)-yl)-3-oxopropyl]-5-(phenylsulfonyl)benzenesulfonamide], the fold induction at 10 µM amounted to 0.9.

`O=S(=O)(NCCO)c1cc(S(=O)(=O)c2ccccc2)ccc1Cl` [Example 673, 2-chloro-N-(2-hydroxyethyl)-5-(phenylsulfonyl)benzenesulfonamide]: the EC50 came out at 15.9 µM and the fold induction at 10 µM was found to be 2.

As to `CC(CO)NS(=O)(=O)c1cc(S(=O)(=O)c2ccccc2)ccc1Cl` (centres unmarked) [Example 674, 2-chloro-N-(2-hydroxy-1-methylethyl)-5-(phenylsulfonyl)benzenesulfonamide], it took 24.1 µM to reach a half-maximal effect (EC50) and the fold induction at 10 µM came out at 2.

Take `O=S(=O)(NC(CO)CO)c1cc(S(=O)(=O)c2ccccc2)ccc1Cl` [Example 675, 2-chloro-N-[2-hydroxy-1-(hydroxymethyl)ethyl]-5-(phenylsulfonyl)benzenesulfonamide]: a half-maximal response (EC50) required 41.5 µM and the fold induction at 10 µM amounted to 1.7.

Take `C[C@H](NS(=O)(=O)c1cc(S(=O)(=O)c2ccccc2)ccc1C(F)(F)F)[C@H](O)c1ccccc1` [Example 685, N-[(1S,2R)-2-hydroxy-1-methyl-2-phenylethyl]-5-(phenylsulfonyl)-2-(trifluoromethyl)benzenesulfonamide]: the fold induction at 10 µM is 1.5.

Regarding `O=S(=O)(NC1CCN(C(=S)c2ccc(C(F)(F)F)cc2)CC1)c1cc(S(=O)(=O)c2ccccc2)ccc1C(F)(F)F` [Example 724, 5-(phenylsulfonyl)-2-(trifluoromethyl)-N-(1-{[4-(trifluoromethyl)phenyl]carbonothioyl}piperidin-4-yl)benzenesulfonamide], the fold induction at 10 µM turned out to be 1.7.

`CC(C)c1ccc(S(=O)(=O)c2ccc(F)cc2)cc1S(=O)(=O)NC1CCN(C(=S)Nc2ccc(C(F)(F)F)cc2)CC1` [Example 730, 4-[({5-[(4-fluorophenyl)sulfonyl]-2-isopropylphenyl}sulfonyl)amino]-N-[4-(trifluoromethyl)phenyl]piperidine-1-carbothioamide]: the fold induction at 10 µM came out at 2.2.

`CC(C)c1ccc(S(=O)(=O)c2ccc(F)cc2)cc1S(=O)(=O)NC(CO)C(C)C` (centres unmarked) [Example 734, 5-[(4-fluorophenyl)sulfonyl]-N-[1-(hydroxymethyl)-2-methylpropyl]-2-isopropylbenzenesulfonamide]: the fold induction at 10 µM turned out to be 1.6.
